Test results: patent publication US12048316B2, “Sweetener and flavor compositions, methods of making and methods of use thereof” (EPC Natural Products Co., Ltd., priority 2018, dated 2024)

Key:
[1] = HPLC/MS quantitative evaluation: degradation of reaction partners and formation of MRI at various pH-conditions; type: physicochemical; conditions: pH = 7.0
Procedure: All samples were analyzed by HPLC/ISIS using following conditions.
Quantitative evaluation was performed using external standardization.

[2] = Assay to test DPPH radical-scavenging activity; type: biochemical; conditions: combinations of amino acids and Reb-A, 100° C.; less pronounced than glucose or xylose
Procedure: 1 mg 1,1-Diphenyl-2-picrylhydrazyl radical (DPPH)/ml ethanol, dilution to assay concentration were prepared in ethanol (40 μg/mL); Calibration samples were prepared with Ascorbic acid in a concentration of 0-10 μg/mL, as a negative control sample, water was used.
Samples in aqueous solution were used as such or diluted with water.
A 0.1 ml sample (or calibration standard) was mixed with 3.9 ml solution of DPPH (100 μMolar) and reacted while protected from light at room temperature for 30 min. Absorbance was determined at 517 nm against ethanol.
10 mM of amino acid and/or 10 mM sugar were dissolved in 10 ml 0.1 mM KH2PO4-buffer, pH=7.8
The samples were kept at 100° C. in sealed glass vials (Pyrex 15 ml with screw caps) for 0 (before reaction), 2.5 or 5.0 hours. Thereafter the samples were transferred to an ice water bath and cooled down to room temperature. These samples were diluted 1:10 and used for the test assay for anti-oxidant potential.

[3] = relative to sucrose (sugar, cane sugar); depends on the tested concentration; cited from earlier work

SMILES | times sweeter than sucrose / sugar [3] | further results
O=C[C@H](O)[C@@H](O)[C@H](O)[C@H](O)CO [Glu, Glucose] | – | % degradation ([1]; reaction Phe + Gluc): 4.6%
C=C1C[C@@]23CC[C@H]4[C@@](C)(CCC[C@@]4(C)C(=O)O[C@@H]4O[C@H](CO)[C@@H](O)[C@H](O)[C@H]4O)[C@@H]2CC[C@]1(O[C@@H]1O[C@H](CO)[C@@H](O)[C@H](O[C@@H]2O[C@H](CO)[C@@H](O)[C@H](O)[C@H]2O)[C@H]1O[C@@H]1O[C@H](CO)[C@@H](O)[C@H](O)[C@H]1O)C3 [Reb-A, Rebaudioside A] | – | anti-oxidant properties (iron-III reduction, radical scavenging) [2]: substantial anti-oxidant properties
C=C1C[C@@]23CC[C@H]4[C@@](C)(CCC[C@@]4(C)C(=O)O[C@@H]4O[C@H](CO)[C@@H](O)[C@H](O)[C@H]4O)[C@@H]2CC[C@]1(O[C@@H]1O[C@H](CO)[C@@H](O)[C@H](O)[C@H]1O)C3 [Rubusoside] | 200 times | –
O=C[C@H](O)[C@@H](O)[C@H](O)CO [Xyl, xylose] | – | % degradation ([1]; reaction Phe + Xyl): 6.3%
O=S(=O)([O-])NC1CCCCC1.[Na+] [sodium cyclamate] | about 30 times | –
OC[C@H]1O[C@H](O[C@]2(CCl)O[C@H](CCl)[C@@H](O)[C@@H]2O)[C@H](O)[C@@H](O)[C@H]1Cl [sucralose] | about 600 times | –
